This passage reports IC50 results from patent publication US20260365647A1, “AKT1 MODULATORS” (Alterome Therapeutics, Inc., priority 2022, published 2026).

Bounds are passed on as bounds.

The target in this assay is T1, AKT1-E17K (Homo sapiens, UniProt P31749, E17K).
T1 construct: host or cells: HEK-293 (ATCC CRL-1573)
T1 sequence (P31749 whole entry E17K): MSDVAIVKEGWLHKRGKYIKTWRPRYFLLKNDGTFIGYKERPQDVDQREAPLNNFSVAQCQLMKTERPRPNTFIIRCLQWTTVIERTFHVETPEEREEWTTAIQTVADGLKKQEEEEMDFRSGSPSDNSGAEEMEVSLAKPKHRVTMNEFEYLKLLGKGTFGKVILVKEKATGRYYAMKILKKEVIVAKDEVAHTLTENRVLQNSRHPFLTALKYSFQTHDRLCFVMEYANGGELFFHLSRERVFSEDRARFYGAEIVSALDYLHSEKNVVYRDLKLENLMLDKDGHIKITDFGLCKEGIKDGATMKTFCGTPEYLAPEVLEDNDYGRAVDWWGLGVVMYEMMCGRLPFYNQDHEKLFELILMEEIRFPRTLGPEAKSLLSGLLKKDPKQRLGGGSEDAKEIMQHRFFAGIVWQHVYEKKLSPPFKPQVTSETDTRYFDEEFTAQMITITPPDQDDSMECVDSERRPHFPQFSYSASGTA
The assay is described as follows: NanoBRET Target Engagement (TE) Assay. The format is cell-based. A digest of the protocol:
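Live cells transiently expressing NanoLuc-AKT1 E17K fusion, incubated 2 h with tracer and compound before substrate plus extracellular NanoLuc inhibitor were added. BRET read at 450/600 nm; EC50 from variable-slope sigmoidal fit of tracer displacement.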
Consider `Nc1ncccc1-c1nc2ccc(-c3ccccc3F)nc2n1-c1ccc(CN2CCN(C(=O)c3ccc(O)c(C=O)c3)CC2)cc1` [Example 141, 5-(4-(4-(2-(2-Aminopyridin-3-yl)-5-(2-fluorophenyl)-3H-imidazo[4,5-b]pyridin-3-yl)benzyl)piperazine-1-carbonyl)-2-hydroxybenzaldehyde], for which the half-inhibitory concentration (IC50) was in the range of 15 to 60 nM.

Regarding `Nc1ncccc1-c1nc2ccc(-c3ccccc3)nc2n1-c1ccc(CN2CCCC(NC(=O)c3ccc(C=O)c(O)c3)CC2)cc1` (centres unmarked) [Example 116, N-(1-(4-(2-(2-aminopyridin-3-yl)-5-phenyl-3H-imidazo[4,5-b]pyridin-3-yl)benzyl)azepan-4-yl)-4-formyl-3-hydroxybenzamide], the half-inhibitory concentration (IC50) fell in the range of 60 to 600 nM.

Take `Nc1ncccc1-c1nc2ccc(-c3cccc(F)c3)nc2n1-c1ccc(CN2CCN(C(=O)c3ccc(O)c(C=O)c3)CC2)cc1` [Example 40, 5-(4-(4-(2-(2-Aminopyridin-3-yl)-5-(3-fluorophenyl)-3H-imidazo[4,5-b]pyridin-3-yl)benzyl)piperazine-1-carbonyl)-2-hydroxybenzaldehyde]: the IC50 fell in the range of 60 to 600 nM.

Regarding `Nc1ncccc1-c1nc2ccc(-c3ccccc3)nc2n1-c1ccc(CN2CCN(c3cccc(C=O)c3O)CC2)cc1` [Example 23, 3-(4-(4-(2-(2-aminopyridin-3-yl)-5-phenyl-3H-imidazo[4,5-b]pyridin-3-yl)benzyl)piperazin-1-yl)-2-hydroxybenzaldehyde], the 50% inhibitory concentration (IC50) lay within 60 to 600 nM.

`Nc1ncccc1-c1nc2ccc(-c3ccccc3)nc2n1-c1ccc(CN2CC3(CCN(C(=O)c4ccc(O)c(C=O)c4)C3)C2)cc1` [Example 92, 5-(2-(4-(2-(2-Aminopyridin-3-yl)-5-phenyl-3H-imidazo[4,5-b]pyridin-3-yl)benzyl)-2,6-diazaspiro[3.4]octane-6-carbonyl)-2-hydroxybenzaldehyde]: the IC50 was in the range of 15 to 60 nM.

`Nc1ncccc1-c1nc2ccc(-c3ccccc3)nc2n1-c1ccc(CN2C3CCC2CN(C(=O)c2ccc(C=O)c(O)c2)C3)cc1` [Example 113, 4-(8-(4-(2-(2-Aminopyridin-3-yl)-5-phenyl-3H-imidazo[4,5-b]pyridin-3-yl)benzyl)-3,8-diazabicyclo[3.2.1]octane-3-carbonyl)-2-hydroxybenzaldehyde]: the concentration for half-maximal inhibition (IC50) lay in the range of 60 to 600 nM.

As to `Nc1ncccc1-c1nc2ccc(-c3ccccc3)nc2n1-c1ccc(CN2CCN(c3cc(O)c(C=O)c(F)c3)CC2)cc1` [Example 24, 4-(4-(4-(2-(2-Aminopyridin-3-yl)-5-phenyl-3H-imidazo[4,5-b]pyridin-3-yl)benzyl)piperazin-1-yl)-2-fluoro-6-hydroxybenzaldehyde], the concentration for half-maximal inhibition (IC50) is 60 to 600 nM.

Molecule `Nc1ncccc1-c1nc2ccc(-c3ccccc3)nc2n1-c1ccc(CN2C[C@@H]3C[C@H]2CN3c2ccc(C=O)c(O)c2)cc1` [Example 123, 4-((1S,4S)-5-(4-(2-(2-Aminopyridin-3-yl)-5-phenyl-3H-imidazo[4,5-b]pyridin-3-yl)benzyl)-2,5-diazabicyclo[2.2.1]heptan-2-yl)-2-hydroxybenzaldehyde] yielded an IC50 of 60 to 600 nM.

`Nc1ncccc1-c1nc2ccc(-c3ccccc3)nc2n1-c1ccc(CN2CC3(CCN(c4ccc(C=O)c(O)c4)CC3)C2)cc1` [Example 97, 4-(2-(4-(2-(2-Aminopyridin-3-yl)-5-phenyl-3H-imidazo[4,5-b]pyridin-3-yl)benzyl)-2,7-diazaspiro[3.5]nonan-7-yl)-2-hydroxybenzaldehyde]: the IC50 was 60 to 600 nM.

As to `Nc1ncccc1-c1nc2ccc(-c3ccccc3)nc2n1-c1ccc(CN2CCC(Nc3ccc(O)c(C=O)c3)CC2)cc1` [Example 48, 5-((1-(4-(2-(2-Aminopyridin-3-yl)-5-phenyl-3H-imidazo[4,5-b]pyridin-3-yl)benzyl)piperidin-4-yl)amino)-2-hydroxybenzaldehyde], the IC50 lay in the range of 60 to 600 nM.

`Nc1ncccc1-c1nc2ccc(-c3ccccc3)nc2n1-c1ccc(CN2C[C@H]3C[C@@H]2CN3C(=O)c2ccc(C=O)c(O)c2)cc1` [Example 56, 4-((1R,4R)-5-(4-(2-(2-Aminopyridin-3-yl)-5-phenyl-3H-imidazo[4,5-b]pyridin-3-yl)benzyl)-2,5-diazabicyclo[2.2.1]heptane-2-carbonyl)-2-hydroxybenzaldehyde] had an IC50 of 60 to 600 nM.

The molecule `Nc1ncccc1-c1nc2ccc(-c3ccccc3)nc2n1-c1ccc(CN2CCC3(CC2)CCN(C(=O)c2ccc(O)c(C=O)c2)CC3)cc1` [Example 77, 5-(9-(4-(2-(2-Aminopyridin-3-yl)-5-phenyl-3H-imidazo[4,5-b]pyridin-3-yl)benzyl)-3,9-diazaspiro[5.5]undecane-3-carbonyl)-2-hydroxybenzaldehyde] gave a half-inhibitory concentration (IC50) of 60 to 600 nM.

Turning to `Nc1ncccc1-c1nc2ccc(-c3ccccc3)nc2n1-c1ccc(CN2CC3(C2)CN(C(=O)c2ccc(O)c(C=O)c2)C3)cc1` [Example 62, 5-(6-(4-(2-(2-Aminopyridin-3-yl)-5-phenyl-3H-imidazo[4,5-b]pyridin-3-yl)benzyl)-2,6-diazaspiro[3.3]heptane-2-carbonyl)-2-hydroxybenzaldehyde], the concentration for half-maximal inhibition (IC50) is less than 15 nM.

For the molecule `Nc1ncccc1-c1nc2ccc(-c3ccccc3)nc2n1-c1ccc(CN2CCN(c3cc(O)c(C=O)cc3Br)CC2)cc1` [Example 27, 4-(4-(4-(2-(2-Aminopyridin-3-yl)-5-phenyl-3H-imidazo[4,5-b]pyridin-3-yl)benzyl)piperazin-1-yl)-5-bromo-2-hydroxybenzaldehyde], the half-maximal inhibitory concentration (IC50) lay within 60 to 600 nM.

Regarding `Nc1ncccc1-c1nc2ccc(-c3ccccc3)nc2n1-c1ccc(CN2CCC3(CCCN(C(=O)c4ccc(C=O)c(O)c4)C3)C2)cc1` (centres unmarked) [Example 87, 4-(2-(4-(2-(2-Aminopyridin-3-yl)-5-phenyl-3H-imidazo[4,5-b]pyridin-3-yl)benzyl)-2,7-diazaspiro[4.5]decane-7-carbonyl)-2-hydroxybenzaldehyde], the IC50 lay within 60 to 600 nM.

For `Nc1ncccc1-c1nc2ccc(-c3ccccc3)nc2n1-c1ccc(COc2ccc(O)c(C=O)c2)cc1` [Example 139, 5-((4-(2-(2-Aminopyridin-3-yl)-5-phenyl-3H-imidazo[4,5-b]pyridin-3-yl)benzyl)oxy)-2-hydroxybenzaldehyde], the half-maximal inhibitory concentration (IC50) is greater than 600 nM.

On to `Nc1ncccc1-c1nc2ccc(-c3ccccc3)nc2n1-c1ccc(CN2CC[C@@H](NC(=O)c3ccc(O)c(C=O)c3)C2)cc1` [Example 59, (R)—N-(1-(4-(2-(2-aminopyridin-3-yl)-5-phenyl-3H-imidazo[4,5-b]pyridin-3-yl)benzyl)pyrrolidin-3-yl)-3-formyl-4-hydroxybenzamide], for which the IC50 was less than 15 nM.

`Nc1ncccc1-c1nc2ccc(-c3ccccc3)nc2n1-c1ccc(CN2C[C@@H]3CN(C(=O)c4ccc(C=O)c(O)c4)C[C@@H]3C2)cc1` [Example 132, 4-((3aR,6aS)-5-(4-(2-(2-Aminopyridin-3-yl)-5-phenyl-3H-imidazo[4,5-b]pyridin-3-yl)benzyl)octahydropyrrolo[3,4-c]pyrrole-2-carbonyl)-2-hydroxybenzaldehyde] registered an IC50 of 60 to 600 nM.

Take `Nc1ncccc1-c1nc2ccc(-c3ccccc3)nc2n1-c1ccc(CN2CC3(C2)CN(C(=O)c2ccc(C=O)c(O)c2)C3)cc1` [Example 66, 4-(6-(4-(2-(2-Aminopyridin-3-yl)-5-phenyl-3H-imidazo[4,5-b]pyridin-3-yl)benzyl)-2,6-diazaspiro[3.3]heptane-2-carbonyl)-2-hydroxybenzaldehyde]: the IC50 fell in the range of 60 to 600 nM.

Molecule `N#Cc1ccc(-c2ccc3nc(-c4cccnc4N)n(-c4ccc(CN5CCN(C(=O)c6ccc(C=O)c(O)c6)CC5)cc4)c3n2)cc1` [Example 39, 4-(2-(2-Aminopyridin-3-yl)-3-(4-((4-(4-formyl-3-hydroxybenzoyl)piperazin-1-yl)methyl)phenyl)-3H-imidazo[4,5-b]pyridin-5-yl)benzonitrile] yielded a half-maximal inhibitory concentration (IC50) of 60 to 600 nM.

Take `Nc1ncccc1-c1nc2ccc(-c3ccccc3)nc2n1-c1ccc(CN2CC3(CCN(c4ccc(C=O)c(O)c4)C3)C2)cc1` [Example 94, 4-(2-(4-(2-(2-Aminopyridin-3-yl)-5-phenyl-3H-imidazo[4,5-b]pyridin-3-yl)benzyl)-2,6-diazaspiro[3.4]octan-6-yl)-2-hydroxybenzaldehyde]: the 50% inhibitory concentration (IC50) is 15 to 60 nM.

`Nc1ncccc1-c1nc2ccc(-c3ccccc3)nc2n1-c1ccc(CN2CCC3(CC2)CCN(C(=O)c2ccc(O)c(C=O)c2)C3)cc1` [Example 74, 5-(8-(4-(2-(2-aminopyridin-3-yl)-5-phenyl-3H-imidazo[4,5-b]pyridin-3-yl)benzyl)-2,8-diazaspiro[4.5]decane-2-carbonyl)-2-hydroxybenzaldehyde]: the IC50 was in the range of 15 to 60 nM.

In the case of `Nc1ncccc1-c1nc2ccc(-c3ccccc3)nc2n1-c1ccc(CN2CCN(c3ccc(C=O)c(O)c3)CC2)cc1` [Example 9, 4-(4-(4-(2-(2-Aminopyridin-3-yl)-5-phenyl-3H-imidazo[4,5-b]pyridin-3-yl)benzyl)piperazin-1-yl)-2-hydroxybenzaldehyde], the half-maximal inhibitory concentration (IC50) lay in the range of 15 to 60 nM.

As for `Cn1cc(-c2ccc3nc(-c4cccnc4N)n(-c4ccc(CN5CCN(C(=O)c6ccc(O)c(C=O)c6)CC5)cc4)c3n2)ccc1=O` [Example 44, 5-(4-(4-(2-(2-aminopyridin-3-yl)-5-(1-methyl-6-oxo-1,6-dihydropyridin-3-yl)-3H-imidazo[4,5-b]pyridin-3-yl)benzyl)piperazine-1-carbonyl)-2-hydroxybenzaldehyde], the half-inhibitory concentration (IC50) was greater than 600 nM.

As for `Nc1ncccc1-c1nc2ccc(-c3ccccc3)nc2n1-c1ccc(CN2C[C@@H]3C[C@H]2CN3C(=O)c2ccc(C=O)c(O)c2)cc1` [Example 122, 4-((1S,4S)-5-(4-(2-(2-Aminopyridin-3-yl)-5-phenyl-3H-imidazo[4,5-b]pyridin-3-yl)benzyl)-2,5-diazabicyclo[2.2.1]heptane-2-carbonyl)-2-hydroxybenzaldehyde], the IC50 was 15 to 60 nM.

`Nc1ncccc1-c1nc2ccc(-c3ccccc3)nc2n1-c1ccc(CN2CCC(NC(=O)c3ccc(C=O)c(O)c3)CC2)cc1` [Example 8, N-(1-(4-(2-(2-Aminopyridin-3-yl)-5-phenyl-3H-imidazo[4,5-b]pyridin-3-yl)benzyl)piperidin-4-yl)-4-formyl-3-hydroxybenzamide]: the 50% inhibitory concentration (IC50) was in the range of 60 to 600 nM.
